# Results reported in patent publication US5935959A, “Piperazine derivatives and use as cysteine inhibitors” (Senju Pharmaceutical Co., Ltd., priority 1995, dated 1999).
# Where two headings read alike, the source gives them in different places.
# Key:
# Assay type in all cases: biochemical
# [1] = tested on: trypsin; assay: Assay of Trypsin-Inhibitory Activity (casein degradation); details: read-out: Trypsin 50% Inhibitory concentration (IC50); casein substrate, pH 8.0, 60 min, 30° C.
# Description: (§1) The activity of papain which is a cysteine protease and of trypsin (Sigma) which is a serine protease was assayed in accordance with the method described in the literature [Anal. Biochem., 208, 387-392, 1993]. Thus, to a solution containing 0.5 mg/ml casein, 50 mM Tris-HCl (pH 8.0), 20 mM dithiothreitol, and 0.2 mM EDTA was added 2.5 μl of dimethyl sulfoxide containing a varying concentration of the test drug as well as 0.03 unit of papain or trypsin to initiate the reaction. The final liquid volume was adjusted to 250 μl. After 60 minutes of reaction at 30° C., 100 μl of the reaction mixture was transferred to another vessel and following addition of 50 μl of purified water and 100 μl of 50% Coumassie brilliant blue solution, the mixture was allowed to stand at room temperature for 15 minutes. The absorbance of the mixture was then measured at 595 nm. Using the value found similarly by adding 2.5 μl of dimethyl sulfoxide not containing the test drug as control and the value found without addition of the enzyme as blank, IC50 was determined in the same manner as above. E64 and leupeptin were used as reference drugs.
# [2] = molecular target: T1, μ-calpain (Homo sapiens, UniProt P07384); assay: Assay of μ-Calpain-Inhibitory Activity (casein degradation); details: casein substrate, pH 7.4, 60 min, 30° C.
# T1 construct: purchased Nakarai Tesque
# T1 sequence (P07384 1-714): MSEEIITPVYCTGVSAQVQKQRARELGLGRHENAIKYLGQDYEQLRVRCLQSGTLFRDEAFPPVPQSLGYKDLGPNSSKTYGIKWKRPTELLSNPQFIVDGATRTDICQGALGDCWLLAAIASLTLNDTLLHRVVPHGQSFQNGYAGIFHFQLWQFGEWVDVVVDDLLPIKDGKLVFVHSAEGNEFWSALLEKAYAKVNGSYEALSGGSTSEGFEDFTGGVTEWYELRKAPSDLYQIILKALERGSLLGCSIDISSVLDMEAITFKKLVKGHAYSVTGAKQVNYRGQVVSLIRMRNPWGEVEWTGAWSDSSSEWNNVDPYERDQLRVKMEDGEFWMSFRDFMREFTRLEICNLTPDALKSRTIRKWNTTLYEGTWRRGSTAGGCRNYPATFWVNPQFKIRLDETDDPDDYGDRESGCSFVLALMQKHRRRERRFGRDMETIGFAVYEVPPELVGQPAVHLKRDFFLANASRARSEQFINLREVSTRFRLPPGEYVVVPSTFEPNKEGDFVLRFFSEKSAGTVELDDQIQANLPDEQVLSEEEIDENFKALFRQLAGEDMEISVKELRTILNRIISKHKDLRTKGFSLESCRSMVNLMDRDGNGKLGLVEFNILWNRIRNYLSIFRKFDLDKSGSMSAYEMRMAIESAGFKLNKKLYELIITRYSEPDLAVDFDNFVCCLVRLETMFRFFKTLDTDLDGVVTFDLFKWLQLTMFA
# T1 sequence (P04632 1-268 partner): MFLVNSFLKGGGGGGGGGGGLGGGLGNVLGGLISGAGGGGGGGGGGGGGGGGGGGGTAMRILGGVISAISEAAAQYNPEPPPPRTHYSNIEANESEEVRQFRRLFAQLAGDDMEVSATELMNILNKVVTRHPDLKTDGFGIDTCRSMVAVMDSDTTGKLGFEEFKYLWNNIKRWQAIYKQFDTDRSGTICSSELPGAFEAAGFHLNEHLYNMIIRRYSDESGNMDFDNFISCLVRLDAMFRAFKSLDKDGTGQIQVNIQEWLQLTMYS
# Description: The activity of μ-calpain (Nakarai Tesque) was assayed in accordance with the procedure described in the literature [Anal. Biochem., 208, 387-392 (1993)]. Thus, to a solution containing 0.5 mg/ml casein, 50 mM Tris-HCl (pH 7.4), 20 mM dithiothreitol, and 4 mM calcium chloride was added 2.5 μl of a dimethyl sulfoxide solution containing a varying concentration of the test drug as well as 0.03 unit of μ-calpain to initiate the reaction. The final liquid volume was 250 μl. After 60 minutes of reaction at 30° C., 100 μl of the reaction mixture was transferred to another vessel, to which 50 μl of purified water and 100 μl of 50% Coumassie brilliant blue solution were added. The mixture was allowed to stand at room temperature for 15 minutes and the absorbance was measured at 595 nm. As a control, 2.5 μl of dimethyl sulfoxide not containing the test drug was added and the mixture was treated in the same manner as above. The absorbance value thus found was used as the control value. Similarly, the value found by adding 0.2 mM EDTA in lieu of 4 mM aqueous calcium chloride solution was used as the blank value. […] E64 which is a known cysteine protease inhibition compound was used as a reference drug. [formula]
# [3] = molecular target: T2, cathepsin L (Homo sapiens, UniProt P07711); assay: Assay of Cathepsin L-Inhibitory Activity (Z-Phe-Arg-MCA); details: Z-Phe-Arg-MCA 20 μM, pH 5.5, 20 min, 30° C.
# T2 construct: purchased Cosmo Bio
# T2 sequence (P07711 114-333, species assumed): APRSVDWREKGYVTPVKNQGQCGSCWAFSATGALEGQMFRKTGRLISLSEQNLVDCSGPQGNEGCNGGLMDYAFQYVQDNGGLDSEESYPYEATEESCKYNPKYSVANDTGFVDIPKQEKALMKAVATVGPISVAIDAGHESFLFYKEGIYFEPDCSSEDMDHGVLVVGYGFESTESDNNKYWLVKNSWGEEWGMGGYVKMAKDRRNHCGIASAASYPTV
# Description: The activity of cathepsinL (Cosmo Bio), a cysteine protease, was assayed by the method described in the literature [Methods in Enzymology, 80, 535-561, 1981]. Thus, to a solution containing 85 mM acetate buffer (pH 5.5), 2 mM dithiothreitol, 1 mM EDTA, 2 μg cathepsin L, and a varying concentration of the test compound was added 20 μM carbobenzoxy-L-phenylalanyl-L-arginine-4-methyl-coumaryl-7-amide (Z-Phe-Arg-MCA) to initiate the reaction at the final liquid volume of 200 μl. After 20 minutes of reaction at 30° C., 20 μl of 1M Tris-HCl (pH 8.0) was added so as to stop the reaction. The amount of liberated 4-methyl-7-aminocoumarin was determined with a fluorospectrometer at an excitation wavelength of 360 nm and a fluorescent emission wavelength of 450 nm. Using the value found without addition of the test drug as control and the value found without addition of the enzyme as blank, IC50 was determined in the same manner as above. E64 was used as a reference drug.
# [4] = molecular target: T3, papain (Carica papaya, UniProt P00784); assay: Assay of Papain-Inhibitory Activity (casein degradation); details: casein substrate, pH 8.0, 60 min, 30° C.
# T3 construct: purchased Sigma
# T3 sequence (P00784 134-345): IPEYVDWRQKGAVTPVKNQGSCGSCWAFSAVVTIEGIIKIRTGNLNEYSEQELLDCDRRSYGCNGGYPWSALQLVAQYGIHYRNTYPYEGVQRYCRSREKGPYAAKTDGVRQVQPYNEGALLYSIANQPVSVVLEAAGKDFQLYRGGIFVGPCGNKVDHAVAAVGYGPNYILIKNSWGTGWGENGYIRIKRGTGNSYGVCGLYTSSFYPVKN
# Description: as §1
SMILES,IC50 [1] [µM],IC50 [2] [µM],also measured
"O=C(O)[C@H]1O[C@@H]1C(=O)N[C@@H](Cc1ccccc1)C(=O)N1CCN(c2ccc(F)cc2)CC1 [Example 21, (2s,3s)-3-[[[[(1s)-1-[[4-(4-fluorophenyl)-1-piperazinyl]carbonyl]-2-phenyl]ethyl]amino]carbonyl]oxiranecarboxylic acid]",> 3000,,
"CC(C)C[C@H](NC(=O)[C@H]1O[C@@H]1C(=O)O)C(=O)N1CCN(c2ccc(F)cc2)CC1 [Example 23, (2s,3s)-3-[[[[(1s)-1-[[4-(4-fluorophenyl)-1-piperazinyl]carbonyl]-3-methyl]butyl]amino]carbonyl]oxiranecarboxylic acid]",> 3000,,
"Cc1ccc(S(=O)(=O)N2CCN(C(=O)[C@H](CC(C)C)NC(=O)[C@H]3O[C@@H]3C(=O)O)CC2)cc1 [Example 26, (2s,3s)-3-[[[[(1s)-1-[[4-(4-methylphenylsulfonyl)-1-piperazinyl]carbonyl]-3-methyl]butyl]amino]carbonyl]oxiranecarboxylic acid]",> 3000,,
"CC(C)C[C@H](NC(=O)[C@H]1O[C@@H]1C(=O)O)C(=O)N1CCN(c2ccccc2Cl)CC1 [Example 27, (2s,3s)-3-[[[[(1s)-1-[[4-(2-chlorophenyl)-1-piperazinyl]carbonyl]3-methyl]butyl]amino]carbonyl]oxiranecarboxylic acid]",> 3000,,
"O=C(O)[C@H]1O[C@@H]1C(=O)NCC(=O)N1CCN(c2ccccc2Cl)CC1 [Example 32, (2s,3s)-3-[[[[[4-(2-chlorophenyl)-1-piperazinyl]carbonyl]methyl]amino]carbonyl]oxiranecarboxylic acid]",> 3000,17.5,IC50 ([3]; read-out: Cathepsin L 50% Inhibitory concentration (IC50)): 37.6 µM
"CC[C@H](C)[C@H](NC(=O)[C@H]1O[C@@H]1C(=O)O)C(=O)N1CCN(c2ccccc2Cl)CC1 [Example 34, (2s,3s)-3-[[[[(1s)-1-[[4-(2-chlorophenyl)-1-piperazinyl]carbonyl]-2-methyl]butyl]amino]carbonyl]oxiranecarboxylic acid]",> 3000,,IC50 [3]: 0.009 µM
"CC(=O)NCSC[C@H](NC(=O)[C@H]1O[C@@H]1C(=O)O)C(=O)N1CCN(c2ccccc2Cl)CC1 [Example 38, (2s,3s)-3-[[[[(1s)-1-[[4-(2-chlorophenyl)-1-piperazinyl]carbonyl]-2-acetylaminomethylthio]ethyl]amino]carbonyl]oxiranecarboxylic acid]",,3.9,
"O=C(O)[C@H]1O[C@@H]1C(=O)NC1(C(=O)N2CCN(c3ccc(F)cc3)CC2)CCCC1 [Example 41, (2s,3s)-3-[[[(1s)-1-[[4-(4-fluorophenyl)-1-piperazinyl]carbonyl]-1-cyclopentyl]amino]carbonyl]oxiranecarboxylic acid]",,145,
"CC(C)C[C@H](NC(=O)[C@H]1O[C@@H]1C(=O)O)C(=O)NCCCCNC(=N)N [Example E-64, reference compound]",> 300,0.66,IC50 [3]: 0.015 µM; IC50 [4]: 0.032 µM
"CC(=O)N[C@@H](CC(C)C)C(=O)N[C@@H](CC(C)C)C(=O)N[C@H](C=O)CCCNC(=N)N [Leupeptin, reference compound]",7.4,,
